Experimental data reported in ChEMBL document CHEMBL4311944, “Discovery of 3-Oxabicyclo[4.1.0]heptane, a Non-nitrogen Containing Morpholine Isostere, and Its Application in Novel Inhibitors of the PI3K-AKT-mTOR Pathway” (J Med Chem, 2019).
In brackets after ≈: the same amount, converted by molar mass.

Legend:
[1] = molecular target: T1, Phosphatidylinositol 4,5-bisphosphate 3-kinase catalytic subunit delta isoform (Homo sapiens, UniProt O00329); assay: Inhibition of PI3Kdelta (unknown origin) using PIP2 as substrate preincubated for 15 mins followed by substrate addition and measured after 1 hr by HTRF assay
T1 sequence (O00329 whole entry): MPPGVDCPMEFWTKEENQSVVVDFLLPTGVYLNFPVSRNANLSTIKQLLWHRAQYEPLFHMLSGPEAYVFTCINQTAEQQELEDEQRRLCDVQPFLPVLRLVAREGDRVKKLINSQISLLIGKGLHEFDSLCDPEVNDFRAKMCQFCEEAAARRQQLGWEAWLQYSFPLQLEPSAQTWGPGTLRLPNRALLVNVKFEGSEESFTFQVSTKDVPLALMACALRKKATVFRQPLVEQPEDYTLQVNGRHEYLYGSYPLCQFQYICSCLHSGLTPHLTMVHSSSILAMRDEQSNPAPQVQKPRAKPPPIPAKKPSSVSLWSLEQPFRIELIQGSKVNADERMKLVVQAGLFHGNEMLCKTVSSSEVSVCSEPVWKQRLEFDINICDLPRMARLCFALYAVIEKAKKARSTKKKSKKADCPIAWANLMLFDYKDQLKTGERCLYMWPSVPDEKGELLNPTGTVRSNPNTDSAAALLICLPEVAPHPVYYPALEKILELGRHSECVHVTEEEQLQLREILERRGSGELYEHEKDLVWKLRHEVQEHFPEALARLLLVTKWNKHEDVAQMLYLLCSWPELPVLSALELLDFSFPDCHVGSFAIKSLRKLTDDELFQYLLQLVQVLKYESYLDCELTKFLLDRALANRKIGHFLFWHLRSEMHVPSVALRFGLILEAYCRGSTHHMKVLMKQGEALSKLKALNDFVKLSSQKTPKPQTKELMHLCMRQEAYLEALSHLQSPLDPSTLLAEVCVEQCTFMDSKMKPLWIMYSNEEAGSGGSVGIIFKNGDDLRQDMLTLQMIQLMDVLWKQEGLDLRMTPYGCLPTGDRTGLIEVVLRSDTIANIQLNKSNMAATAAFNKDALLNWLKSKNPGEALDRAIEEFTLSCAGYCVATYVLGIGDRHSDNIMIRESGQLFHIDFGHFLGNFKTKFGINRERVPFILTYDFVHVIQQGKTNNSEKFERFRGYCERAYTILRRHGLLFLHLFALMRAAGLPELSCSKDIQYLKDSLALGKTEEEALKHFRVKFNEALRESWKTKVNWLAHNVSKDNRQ

[2] = Kinetic solubility of the compound in pH 7.4 phosphate buffered saline measured after 1 hr; assay type: physicochemical; conditions: read-out: Kinetic_solubility
[3] = Lipophilicity, logP of the compound by reversed phase column chromatography; assay type: physicochemical
[4] = molecular target: Phosphatidylinositol 4,5-bisphosphate 3-kinase catalytic subunit alpha isoform (Homo sapiens, UniProt P42336)
Description: Inhibition of PI3Kalpha (unknown origin) using PIP2 as substrate preincubated for 15 mins followed by substrate addition and measured after 1 hr by HTRF assay

[5] = Inhibition of ligand binding to mTORC1/mTORC2 in human HuT78 cells after 2 hrs by kinobead competition binding assay; assay type: cell-based
[6] = Inhibition of PI3K/AKT/mTOR in human lung fibroblasts assessed as reduction in AKT phosphorylation at serine473 residue preincubated for 1 hr followed by PDGF-BB stimulation and measured after 10 mins by electrochemiluminescence method

Chain of Phosphatidylinositol 4,5-bisphosphate 3-kinase catalytic subunit alpha isoform (P42336 whole entry, canonical isoform): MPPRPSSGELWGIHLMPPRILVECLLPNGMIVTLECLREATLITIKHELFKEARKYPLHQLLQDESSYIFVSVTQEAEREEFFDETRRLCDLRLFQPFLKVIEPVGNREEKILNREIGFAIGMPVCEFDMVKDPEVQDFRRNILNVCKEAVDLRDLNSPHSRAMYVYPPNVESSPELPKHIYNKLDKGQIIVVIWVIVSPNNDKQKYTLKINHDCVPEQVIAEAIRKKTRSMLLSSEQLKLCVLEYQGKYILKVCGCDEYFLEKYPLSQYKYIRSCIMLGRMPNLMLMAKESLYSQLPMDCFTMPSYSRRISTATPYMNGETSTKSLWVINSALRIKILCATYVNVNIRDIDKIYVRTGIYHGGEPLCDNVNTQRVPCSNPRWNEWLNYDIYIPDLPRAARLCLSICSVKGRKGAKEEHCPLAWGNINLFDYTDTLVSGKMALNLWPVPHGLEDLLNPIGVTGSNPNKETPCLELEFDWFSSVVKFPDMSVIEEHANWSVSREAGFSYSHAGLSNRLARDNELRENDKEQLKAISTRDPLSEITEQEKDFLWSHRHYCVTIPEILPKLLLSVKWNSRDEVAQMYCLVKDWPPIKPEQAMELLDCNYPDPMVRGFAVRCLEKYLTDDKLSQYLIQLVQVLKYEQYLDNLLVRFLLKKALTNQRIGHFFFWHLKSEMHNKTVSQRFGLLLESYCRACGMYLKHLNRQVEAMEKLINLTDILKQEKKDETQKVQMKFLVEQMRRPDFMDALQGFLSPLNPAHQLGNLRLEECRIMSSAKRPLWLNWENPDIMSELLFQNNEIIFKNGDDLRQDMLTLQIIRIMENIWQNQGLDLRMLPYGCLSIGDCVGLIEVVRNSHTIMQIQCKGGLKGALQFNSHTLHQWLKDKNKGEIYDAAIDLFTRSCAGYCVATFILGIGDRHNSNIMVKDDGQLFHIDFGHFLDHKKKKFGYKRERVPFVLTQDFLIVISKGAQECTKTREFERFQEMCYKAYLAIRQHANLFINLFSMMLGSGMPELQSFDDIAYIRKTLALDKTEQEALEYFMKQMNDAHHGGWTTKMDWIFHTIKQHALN

SMILES | IC50 [1] | solubility kinetic at 1 h [2] | logP [3] | IC50 [4] | pIC50 [5] | IC50 [6]
CCNC(=O)Nc1ccc(-c2nc(CS(C)(=O)=O)cc(N3CCOC[C@@H]3C)n2)cc1 | 20 µM | 212 µg/mL (≈ 489 µM) | 3.2 | 15.8 µM | 7.1 | 0.316 µM
CCNC(=O)Nc1ccc(-c2nc(CS(C)(=O)=O)cc(N3CCOCC3)n2)cc1 | – | – | 2.7 | – | 7.3 | 1.26 µM
C[C@H]1COCCN1c1cc(CS(C)(=O)=O)nc(-c2cccc(O)c2)n1 | 1 µM | 113 µg/mL (≈ 311 µM) | 3.3 | 1 µM | 6.7 | 2.51 µM
C[C@H]1COCCN1c1ccnc(-c2cccc(O)c2)n1 | 1 µM | 119 µg/mL (≈ 439 µM) | 3.3 | 1.58 µM | 5.7 | 3.98 µM
CS(=O)(=O)Cc1cc([C@@]23CCOC[C@@H]2C3)nc(-c2cccc(O)c2)n1 | 3.98 µM | 145 µg/mL (≈ 402 µM) | 3.7 | 7.94 µM | 5.9 | 5.01 µM
Oc1cccc(-c2nccc(C3CCOCC3)n2)c1 | 7.94 µM | 100 µg/mL (≈ 390 µM) | 3.3 | 15.8 µM | 4.5 | 20 µM
CC(C)(c1cc([C@]23CCOC[C@H]2C3)nc(-c2cccc(O)c2)n1)S(C)(=O)=O | 10 µM | 135 µg/mL (≈ 348 µM) | 4.8 | 15.8 µM | 5.5 | 1.26 µM
CCNC(=O)Nc1ccc(-c2nc(CS(C)(=O)=O)cc([C@]34CCOC[C@H]3C4)n2)cc1 | 7.94 µM | 96 µg/mL (≈ 223 µM) | 3.6 | > 31.6 µM | 7 | 0.501 µM
CCNC(=O)Nc1ccc(-c2nccc(C34CCOCC3C4)n2)cc1 (stereo unspecified) | 5.01 µM | 111 µg/mL (≈ 328 µM) | 4 | 12.6 µM | 5.8 | 3.16 µM
CC(C)(c1cc([C@@]23CCOC[C@@H]2C3)nc(-c2cccc(O)c2)n1)S(C)(=O)=O | 7.94 µM | 148 µg/mL (≈ 381 µM) | 4.8 | 10 µM | < 5.4 | 5.01 µM
CCNC(=O)Nc1ccc(-c2nc(C(C)(C)S(C)(=O)=O)cc([C@]34CCOC[C@H]3C4)n2)cc1 | 25.1 µM | 74 µg/mL (≈ 161 µM) | 4.7 | > 31.6 µM | 6.9 | 0.0631 µM
CCNC(=O)Nc1ccc(-c2nccc(N3CCOCC3)n2)cc1 | 10 µM | 109 µg/mL (≈ 333 µM) | 2.7 | 12.6 µM | 6.5 | 3.98 µM
CCNC(=O)Nc1ccc(-c2nc(CS(C)(=O)=O)cc([C@@]34CCOC[C@@H]3C4)n2)cc1 | 25.1 µM | 77 µg/mL (≈ 179 µM) | 3.6 | > 31.6 µM | 6.1 | 1.58 µM
C[C@H]1COCCN1c1cc(C(C)(C)S(C)(=O)=O)nc(-c2cccc(O)c2)n1 | 3.16 µM | 121 µg/mL (≈ 309 µM) | 4.4 | 3.16 µM | 5.7 | 1.26 µM
Oc1cccc(-c2nccc(C34CCOCC3C4)n2)c1 (stereo unspecified) | 3.98 µM | 102 µg/mL (≈ 380 µM) | 4.1 | 6.31 µM | 4.8 | 7.94 µM
Oc1cccc(-c2nccc(N3CCOCC3)n2)c1 | 0.251 µM | 107 µg/mL (≈ 416 µM) | 2.7 | 0.501 µM | 5.9 | 2 µM
CCNC(=O)Nc1ccc(-c2nc(C(C)(C)S(C)(=O)=O)cc([C@@]34CCOC[C@@H]3C4)n2)cc1 | 15.8 µM | 78 µg/mL (≈ 170 µM) | 4.7 | 25.1 µM | 6.6 | 0.158 µM
CCNC(=O)Nc1ccc(-c2nccc(C3=CCOCC3)n2)cc1 | 15.8 µM | 24 µg/mL (≈ 74 µM) | 3.6 | 20 µM | 6 | 3.98 µM
Oc1cccc(-c2nccc(C3=CCOCC3)n2)c1 | 1.26 µM | 113 µg/mL (≈ 444 µM) | 3.6 | 3.16 µM | 5.7 | 3.16 µM
Oc1cccc(-c2nccc([C@]34CCOC[C@H]3C4)n2)c1 | 1.26 µM | 141 µg/mL (≈ 525 µM) | 4 | 2.51 µM | 5.1 | 7.94 µM
Oc1cccc(-c2nccc([C@@]34CCOC[C@@H]3C4)n2)c1 | 3.16 µM | 123 µg/mL (≈ 458 µM) | 4 | 6.31 µM | < 3 | 10 µM
CCNC(=O)Nc1ccc(-c2nc(N3CCOC[C@@H]3C)cc(C(C)(C)S(C)(=O)=O)n2)cc1 | 7.94 µM | 130 µg/mL (≈ 282 µM) | 4.4 | 7.94 µM | 7.3 | 0.0501 µM
CS(=O)(=O)Cc1cc([C@]23CCOC[C@H]2C3)nc(-c2cccc(O)c2)n1 | 15.8 µM | 75 µg/mL (≈ 208 µM) | 3.7 | 20 µM | 5.8 | 3.16 µM
CS(=O)(=O)Cc1cc(C2=CCOCC2)nc(-c2cccc(O)c2)n1 | 1.58 µM | 27 µg/mL (≈ 77.9 µM) | 3.3 | 6.31 µM | 6.4 | 0.794 µM
